Data set [1] deals with T1, Human COX I (Homo sapiens, UniProt P23219).
T1 construct: A 2.0 kb fragment containing the coding region of either human or murine COX-I or human or murine COX-II; made in house; host or cells: SF9 insect cells (recombinant baculovirus, transfer vector pVL1393)
The data set is described as follows: COX I activity in vitro (PGE2 ELISA, recombinant enzyme). To be noted: arachidonic acid 10 μM, pre-incubation 10-20 minutes; read-out: Human COX I ID50. The class given is biochemical. Here is the method:
(§1) A 2.0 kb fragment containing the coding region of either human or murine COX-I or human or murine COX-II was cloned into a BamH1 site of the baculovirus transfer vector pVL1393 (Invitrogen) to generate the baculovirus transfer vectors for COX-I and COX-II in a manner similar to the method of D. R. O'Reilly et al (Baculovirus Expression Vectors: A Laboratory Manual (1992)). Recombinant baculoviruses were isolated by transfecting 4 μg of baculovirus transfer vector DNA into SF9 insect cells ([…]) along with 200 ng of linearized baculovirus plasmid DNA by the calcium phosphate method. See M. D. Summers and G. E. Smith, A Manual of Methods for Baculovirus Vectors and Insect Cell Culture Procedures, Texas Agric. Exp. Station Bull. 1555 (1987). Recombinant viruses were purified by three rounds of plaque purification and high titer (10E7-10E8 pfu/ml), stocks of virus were prepared. For large scale production, SF9 insect cells were infected in 10 liter fermentors (0.5×10^6/ml) with the recombinant baculovirus stock such that the multiplicity of infection was 0.1. After 72 hours the cells were centrifuged and the cell pellet homogenized in Tris/Sucrose (50 mM: 25%, pH 8.0) containing 1% 3-[(3-cholamidopropyl)dimethylammonio]-1-propanesulfonate (CHAPS). The homogenate was centrifuged at 10,000×G for 30 minutes, and the resultant supernatant was stored at −80° C. before being assayed for COX activity.
(§2) COX activity was assayed as PGE2 formed/μg protein/time using an ELISA to detect the prostaglandin released. CHAPS-solubilized insect cell membranes containing the appropriate COX enzyme were incubated in a potassium phosphate buffer (50 mM, pH 8.0) containing epinephrine, phenol, and heme with the addition of arachidonic acid (10 μM). Compounds were pre-incubated with the enzyme for 10-20 minutes prior to the addition of arachidonic acid. Any reaction between the arachidonic acid and the enzyme was stopped after ten minutes at 37° C./room temperature by transferring 40 μl of reaction mix into 160 μl ELISA buffer and 25 μM indomethacin. The PGE2 formed was measured by standard ELISA technology (Cayman Chemical).
Background: ELISA stands for enzyme-linked immunosorbent assay.

The target in data set [2] is T2, Human COX II (Homo sapiens, UniProt P35354).
T2 construct: A 2.0 kb fragment containing the coding region of either human or murine COX-I or human or murine COX-II; made in house; host or cells: SF9 insect cells (recombinant baculovirus, transfer vector pVL1393)
T2 sequence (P35354 18-604): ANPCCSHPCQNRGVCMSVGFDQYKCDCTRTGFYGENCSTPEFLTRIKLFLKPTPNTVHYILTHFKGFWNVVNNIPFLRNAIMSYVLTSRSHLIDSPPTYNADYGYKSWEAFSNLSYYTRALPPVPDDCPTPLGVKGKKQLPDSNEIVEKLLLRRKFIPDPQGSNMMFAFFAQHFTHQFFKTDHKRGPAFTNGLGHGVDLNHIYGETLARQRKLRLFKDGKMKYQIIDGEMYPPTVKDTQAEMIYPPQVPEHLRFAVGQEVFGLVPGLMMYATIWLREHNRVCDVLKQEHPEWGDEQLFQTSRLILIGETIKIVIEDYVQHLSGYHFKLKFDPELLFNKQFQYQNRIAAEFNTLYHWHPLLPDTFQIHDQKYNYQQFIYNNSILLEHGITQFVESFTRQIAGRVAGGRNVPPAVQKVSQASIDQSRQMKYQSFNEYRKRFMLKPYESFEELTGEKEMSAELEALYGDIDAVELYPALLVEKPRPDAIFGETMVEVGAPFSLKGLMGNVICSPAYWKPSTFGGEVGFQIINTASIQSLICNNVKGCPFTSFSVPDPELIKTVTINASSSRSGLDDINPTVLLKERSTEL
As to the kind of experiment: COX II activity in vitro (PGE2 ELISA, recombinant enzyme). To be noted: arachidonic acid 10 μM, pre-incubation 10-20 minutes; read-out: Human COX II ID50. The class given is biochemical. Here is the method: The COX II inhibition activity of the compounds of this invention illustrated in the Examples was determined by the following methods.
as §1, §2

Usually melting point stands for the temperature, or range, at which the solid turns liquid.

T1 sequence (P23219 24-599): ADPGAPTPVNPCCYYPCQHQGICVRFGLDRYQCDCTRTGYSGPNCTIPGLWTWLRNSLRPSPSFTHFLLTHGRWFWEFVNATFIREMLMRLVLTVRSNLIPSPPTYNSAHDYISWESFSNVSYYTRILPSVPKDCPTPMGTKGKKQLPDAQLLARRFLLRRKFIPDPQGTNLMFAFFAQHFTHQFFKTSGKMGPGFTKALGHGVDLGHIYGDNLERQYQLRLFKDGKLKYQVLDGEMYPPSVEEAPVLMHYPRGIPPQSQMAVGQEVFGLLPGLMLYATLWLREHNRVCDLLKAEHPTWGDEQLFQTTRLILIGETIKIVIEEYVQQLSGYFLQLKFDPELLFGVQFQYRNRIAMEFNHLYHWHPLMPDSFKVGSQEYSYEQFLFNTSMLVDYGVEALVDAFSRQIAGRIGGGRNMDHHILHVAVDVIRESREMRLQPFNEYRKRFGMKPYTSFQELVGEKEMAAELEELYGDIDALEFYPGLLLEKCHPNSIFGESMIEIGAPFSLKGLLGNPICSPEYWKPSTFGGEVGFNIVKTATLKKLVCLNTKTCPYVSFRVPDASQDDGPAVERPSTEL

For the compound `CS(=O)(=O)c1ccc(-c2nc(C(F)(F)F)[nH]c2-c2cccnc2)cc1` [Example 62, 4-(4-(Methylsulfonyl)phenyl]-5-(3-pyridyl)-2-(trifluoromethyl)-1H-imidazole], the IC50 in data set [1] was over 100 µM; in data set [2] it was 2.4 µM. For `CS(=O)(=O)c1ccc(-c2nc(C(F)(F)F)[nH]c2-c2ccccc2Cl)cc1` [Example 12, 5-(2-Chlorophenyl)-4-[4-(methylsulfonyl)phenyl]-2-(trifluoromethyl)-1H-imidazole], in that order: over 100 µM and 1.3 µM. Turning to `CS(=O)(=O)c1ccc(-c2[nH]c(S(=O)(=O)c3ccccc3)nc2-c2ccc(F)cc2)cc1` [Example 92, 4-(4-Fluorophenyl)-5-[4-(methylsulfonyl)phenyl]-2-(phenyl-sulfonyl)-1H-imidazole], the results for the IC50 in data set [1] and in data set [2] were over 100 µM and 3 µM, respectively. For `CS(=O)(=O)c1ccc(-c2[nH]c(COCc3ccccc3)nc2-c2ccc(F)cc2)cc1` [Example 82, 4-(4-Fluorophenyl)-5-[4-(methylsulfonyl)phenyl]-2-(phenyl-methoxymethyl)-1H-imidazole], in that order: over 100 µM and 0.7 µM. On the same counts, the results for `CS(=O)(=O)c1ccc(-c2nc(C(F)(F)F)[nH]c2-c2ccc(F)cc2F)cc1` [Example 17, 5-(2,4-Difluorophenyl)-4-[4-(methylsulfonyl)phenyl]-2-(trifluoromethyl)-1H-imidazole] are over 100 µM and 0.3 µM. On the same counts, the results for `Cc1nc(-c2ccc(S(C)(=O)=O)cc2)c(-c2ccc(F)cc2)[nH]1` [Example 6, 5-(4-Fluorophenyl)-2-methyl-4-(4-methylsulfonylphenyl)-1H-imidazole] are over 100 µM and 4.6 µM.

Take `NS(=O)(=O)c1ccc(-c2nc(C(F)(F)F)[nH]c2-c2ccc(F)cc2)cc1` [Example 21, 4-[5-(4-Fluorophenyl)-2-(trifluoromethyl)-1H-imidazol-4-yl]benzenesulfonamide]: the melting point is 259 to 260 °C. Moreover, the IC50 in data set [1] worked out at 10.8 µM.

`CS(=O)(=O)c1ccc(-c2nc(C(F)(F)F)[nH]c2-c2ccc(Cl)c(Cl)c2)cc1` [Example 13, 5-(3,4-Dichlorophenyl)-4-[4-(methylsulfonyl)phenyl]-2-(trifluoromethyl)-1H-imidazole]: the IC50 in data set [1] came to 9.6 µM.

For `CS(=O)(=O)c1ccc(-c2nc(C(F)(F)F)[nH]c2-c2cccc(C#N)c2)cc1` [Example 63], the IC50 in data set [1] was over 100 µM; in data set [2] it was 1.3 µM. For `CS(=O)(=O)c1ccc(-c2nc(C(F)(F)F)[nH]c2-c2ccc(F)c(F)c2)cc1` [Example 18, 5-(3,4-Difluorophenyl)-4-[4-(methylsulfonyl)phenyl]-2-(trifluoromethyl)-1H-imidazole], in that order: over 100 µM and 0.2 µM. On the same counts, the results for `COc1ccc(-c2[nH]c(C(F)(F)F)nc2-c2ccc(S(C)(=O)=O)cc2)cc1` [Example 15, 5-(4-Methoxyphenyl)-4-[4-(methylsulfonyl)phenyl]-2-(trifluoromethyl)-1H-imidazole] are 5.6 µM and 2.9 µM. With `CCOCc1nc(-c2ccc(F)cc2)c(-c2ccc(S(C)(=O)=O)cc2)[nH]1` [Example 81, 2-(Ethoxymethyl)-4-(4-fluorophenyl)-5-[4-(methylsulfonyl)phenyl]-1H-imidazole], the IC50 in data set [1] was determined as 77 µM; in data set [2], 3.3 µM. For `CS(=O)(=O)c1ccc(-c2nc(C(F)(F)F)[nH]c2-c2ccc(Cl)cc2)cc1` [Example 11, 5-(4-Chlorophenyl)-4-[4-(methylsulfonyl)phenyl]-2-(trifluoromethyl)-1H-imidazole], in that order: 10.4 µM and 0.4 µM. The compound `CS(=O)(=O)c1ccc(-c2nc(SCc3ccccc3)[nH]c2-c2ccc(F)cc2)cc1` [Example 8, 2-Benzylthio-5-(4-fluorophenyl)-4-[4-(methylsulfonyl)phenyl]-1H-imidazole] came in with a melting point of 155 to 156 °C. In data set [1], the IC50 is 2.1 µM.

The values above are taken from US6426360B1, “4,5-substituted imidazolyl compounds for the treatment of inflammation” (G D Searle & Co., priority 1994, dated 2002).
